From US11518750B2, “3-methylideneoxan-4-one compounds and substituted derivatives thereof as inhibitors of telomerase” (NORTHWESTERN UNIVERSITY, priority 2019, dated 2022) come the findings set out here.

Series [1] relates to N-acetyl cysteine (NAC). The series is described as follows: physchem. It counts as physicochemical. The following applies: pH 7.4. Here is the method: N-Acetyl Cysteine, N-Acetyl Lysine and N-Acetyl Serine Kinetic Studies. Assay was conducted as described with minor modifications.^81-84 Briefly, a 1 mM stock solution of NU-1 with internal standard (phenacetin) in DMSO was added to a 50 mM solution of either N-acetyl cysteine, N-acetyl lysine or N-acetyl serine in 67 mM phosphate buffer (pH 7.4), as well as added to a solution of 67 mM phosphate buffer (pH 7.4) control. Samples were taken every 2 min for 2 h and quenched immediately with MeOH and centrifuged upon sampling. Samples were placed on a Waters Acquity UPLC-MS system and measured for the ratio of NU-1 to internal standard intensity to calculate the amount of NU-1 present at each time point relative to the amount of NU-1 at the first injection of the compound in buffer. Assay was conducted in triplicate.

In series [2] the target is T1, telomerase (MCF-7 cell lysates) (Homo sapiens, UniProt O14746).
T1 construct: endogenous in cells; host or cells: MCF-7
T1 sequence (O14746 whole entry): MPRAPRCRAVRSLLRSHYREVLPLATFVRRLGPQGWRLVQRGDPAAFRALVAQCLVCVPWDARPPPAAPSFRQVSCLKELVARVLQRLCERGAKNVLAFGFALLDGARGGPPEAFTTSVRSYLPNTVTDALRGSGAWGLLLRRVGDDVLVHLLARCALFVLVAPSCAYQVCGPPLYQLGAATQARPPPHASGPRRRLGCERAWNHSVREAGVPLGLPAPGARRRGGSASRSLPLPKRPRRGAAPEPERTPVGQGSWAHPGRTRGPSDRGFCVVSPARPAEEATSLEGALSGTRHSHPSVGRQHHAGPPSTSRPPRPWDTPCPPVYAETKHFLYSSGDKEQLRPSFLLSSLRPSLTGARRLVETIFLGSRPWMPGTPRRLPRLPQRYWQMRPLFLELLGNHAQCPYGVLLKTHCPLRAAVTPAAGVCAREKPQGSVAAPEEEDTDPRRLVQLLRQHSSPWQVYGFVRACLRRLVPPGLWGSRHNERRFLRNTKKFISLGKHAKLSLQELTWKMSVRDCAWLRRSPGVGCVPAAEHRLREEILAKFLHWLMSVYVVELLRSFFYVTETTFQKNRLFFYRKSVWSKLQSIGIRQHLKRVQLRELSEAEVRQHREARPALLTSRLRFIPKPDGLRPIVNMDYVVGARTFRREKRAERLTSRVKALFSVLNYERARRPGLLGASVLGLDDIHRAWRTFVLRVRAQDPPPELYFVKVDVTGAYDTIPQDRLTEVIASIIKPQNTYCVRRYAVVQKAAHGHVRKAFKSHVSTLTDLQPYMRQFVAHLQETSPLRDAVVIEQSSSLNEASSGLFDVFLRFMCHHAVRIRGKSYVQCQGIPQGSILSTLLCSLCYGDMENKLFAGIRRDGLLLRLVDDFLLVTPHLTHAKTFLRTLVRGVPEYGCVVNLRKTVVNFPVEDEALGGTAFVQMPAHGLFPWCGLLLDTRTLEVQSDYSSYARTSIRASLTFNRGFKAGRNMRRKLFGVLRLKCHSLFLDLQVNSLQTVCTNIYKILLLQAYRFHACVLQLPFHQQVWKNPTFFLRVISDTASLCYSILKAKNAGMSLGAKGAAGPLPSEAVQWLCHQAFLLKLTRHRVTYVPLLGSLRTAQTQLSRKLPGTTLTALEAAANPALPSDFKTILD
T1 sequence (O60832 whole entry partner): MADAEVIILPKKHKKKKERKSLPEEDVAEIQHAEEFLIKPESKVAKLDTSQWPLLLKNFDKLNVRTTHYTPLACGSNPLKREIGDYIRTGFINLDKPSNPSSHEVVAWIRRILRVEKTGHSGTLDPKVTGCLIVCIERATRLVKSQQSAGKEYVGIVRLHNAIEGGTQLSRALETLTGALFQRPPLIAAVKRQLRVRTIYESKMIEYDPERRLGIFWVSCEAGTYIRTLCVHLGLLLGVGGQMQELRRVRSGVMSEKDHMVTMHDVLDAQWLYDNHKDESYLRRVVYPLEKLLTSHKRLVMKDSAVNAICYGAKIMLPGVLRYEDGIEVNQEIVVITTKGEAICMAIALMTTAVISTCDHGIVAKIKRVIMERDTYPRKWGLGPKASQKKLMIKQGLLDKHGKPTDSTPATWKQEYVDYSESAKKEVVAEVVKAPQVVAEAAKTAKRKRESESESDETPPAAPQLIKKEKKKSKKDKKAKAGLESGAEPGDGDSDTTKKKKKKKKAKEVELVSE
T1 sequence (Q9NPE3 whole entry partner): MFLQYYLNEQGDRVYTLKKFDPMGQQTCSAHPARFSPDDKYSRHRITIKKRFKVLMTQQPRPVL
T1 sequence (Q9NX24 whole entry partner): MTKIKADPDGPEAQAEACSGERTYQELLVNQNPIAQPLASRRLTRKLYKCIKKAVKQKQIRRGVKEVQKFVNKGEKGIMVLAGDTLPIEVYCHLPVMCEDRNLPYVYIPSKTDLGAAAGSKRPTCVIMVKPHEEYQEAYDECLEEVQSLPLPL
T1 sequence (Q9NY12 whole entry partner): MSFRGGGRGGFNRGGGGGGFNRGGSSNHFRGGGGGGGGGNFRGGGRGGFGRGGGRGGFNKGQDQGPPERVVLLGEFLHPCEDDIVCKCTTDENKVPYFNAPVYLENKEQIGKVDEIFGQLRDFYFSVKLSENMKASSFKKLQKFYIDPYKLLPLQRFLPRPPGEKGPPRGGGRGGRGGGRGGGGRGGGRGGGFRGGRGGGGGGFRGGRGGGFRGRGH
T1 sequence (Q9BUR4 whole entry partner): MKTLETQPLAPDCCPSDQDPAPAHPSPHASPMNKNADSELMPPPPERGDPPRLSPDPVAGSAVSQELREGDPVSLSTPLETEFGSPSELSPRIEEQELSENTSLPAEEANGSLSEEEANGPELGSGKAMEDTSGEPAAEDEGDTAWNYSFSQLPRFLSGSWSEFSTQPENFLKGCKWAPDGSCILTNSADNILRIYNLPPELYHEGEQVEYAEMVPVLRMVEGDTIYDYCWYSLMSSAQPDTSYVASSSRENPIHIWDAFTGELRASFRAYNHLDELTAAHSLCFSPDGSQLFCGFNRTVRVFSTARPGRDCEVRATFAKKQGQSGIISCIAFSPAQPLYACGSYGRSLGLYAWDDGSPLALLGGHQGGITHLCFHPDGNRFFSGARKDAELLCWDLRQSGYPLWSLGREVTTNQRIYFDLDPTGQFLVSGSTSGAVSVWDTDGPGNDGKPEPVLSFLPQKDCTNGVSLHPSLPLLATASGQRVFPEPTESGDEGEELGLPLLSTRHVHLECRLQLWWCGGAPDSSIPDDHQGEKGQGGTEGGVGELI
The series is described as follows: TRAP assay in cell lysates (PCR-based telomerase activity assay). It counts as biochemical. As to conditions: TRAP assay in MCF7 cell lysate in vitro; read-out: IC50. An excerpt: In developing a preliminary structural activity relationship (SAR) for the chrologs, we divided the structure of the pyran into four main components: (1)C-2 substituents (carboxylic acid of chrolactomycin); (2) C-6 substituents (chrolactomycin macrolide loop); (3) C-3 substituents (fused γ-lactone of chrolactomycin) and (4) inclusion of the exocyclic methylene group. We carried out systematic modifications of each structural unit and evaluated the effects on telomerase activity as measured by a PCR-based telomerase activity assay (TRAP assay).^16
Telomeric Repeat Amplification Protocol Assay. The telomeric repeat amplification protocol (TRAP) assay was performed using the TRAPeze RT Telomerase Detection Kit (EMD Millipore) and iTaq DNA polymerase (Bio-Rad) according to the manufacturer's protocol.
Cell Lysate TRAP Analysis. MCF-7, HeLa, ACHN, MDA-MB231 and A549 cells were cultured in DMEM media supplemented with 10% Fetal Bovine Serum (FBS), 1% pen/strep and with 5% CO2 and 37° C. Cells were plated in 2×T75 flasks and cultured for 3 days. Flasks were rinsed twice with PBS and treated with 0.05% trypsin-EDTA (Thermo Fisher) to detach cells. […] Cell extracts were transferred to microcentrifuge tubes, 200 μl/tube, and centrifuged at 12,000×g for 20 min at 4° C. to remove cell debris. Stock solutions of compounds were made in DMSO with a concentration of 100 mM and a […] dilution was performed in DMSO in a 96-well plate to produce compound solutions of 100, 10, 1, 0.1, 0.01, and 0.001 mM (1000× of the final concentration). The 1000× stock solutions of the compound samples were transferred to a 96-well plate using the Echo 550 (Labcyte) and then diluted with the cell extracts to yield final compound concentrations of 100, 10, 1, 0.1, 0.01, and 0.001 μM. The plate was covered and shaken at room temperature for 30 min. For TRAPeze reactions, a “master mix” was prepared according to the TRAPeze protocol, containing 5 μl of the TRAPeze reaction mix; 0.4 μl Taq polymerase; 17.6 μl PCR grade, nuclease-free water. The master mix and treated cell extracts were transferred using the Mosquito Crystal Liquid Handling System (TTP Labtech) into separate wells in a white, 384-well RT-PCR plate. Each well contained 1.2 μl of the master mix and 1.2 μl of the treated cell extract to give a final volume of 2.4 μl, with two duplicates for each sample. The RT-PCR plate was then sealed and centrifuged for 5 min. A sample containing only CHAPS Lysis Buffer was included as negative control. The TSR8 standards were included to generate a standard curve. Samples were amplified in a CFW384 RT-PCR (BioRad) detection system with PCR parameters of 30 min at 30° C. for 1 cycle, 2 min at 95° C. for 1 cycle, and then 45 cycles of 15 s at 94° C., 60 s at 59° C., and 10 s at 45° C. Real-time fluorescent data was obtained during the 10 s at 45° C. step. The number of cycles at which the fluorescence level reached a threshold (Ct) was averaged between the duplicates for each sample. Using a calibration curve obtained from the TSR8 standards, a linear equation was obtained to convert the Ct values into arbitrary telomerase activity units, which were plotted as a function of compound concentration to construct dose-response curves and calculate IC50.

Structures are written as SMILES.

Broadly, the half-life is the time in which the quantity being followed falls by half. In general, IC50 refers to the concentration at which inhibition is half-maximal. With `C=C1C(=O)[C@](C)(C(=O)OC)[C@H](CCc2cn(Cc3ccc(F)cc3F)nn2)O[C@@H]1C` [NU-1, methyl (2S,3R,6R)-2-(2-(1-(2,4-difluorobenzyl)-1H-1,2,3-triazol-4-yl)ethyl)-3,6-dimethyl-5 methylene-4-oxotetrahydro-2H-pyran-3-carboxylate], the half-life at 1 μM in series [1] is 42 min. In addition, in series [2], the IC50 stood at 0.09 µM.
